Experimental findings from BindingDB's records for doi:10.7270/Q24B305P (D3R/Abbott, 2015) are described below.

Some results are limits rather than exact numbers.

The experiment deals with T1, Urokinase-type plasminogen activator [179-424,C299A,N323Q] (Human, UniProt P00749, C299A/N323Q).
T1 construct: 179-424
Put plainly: Photometric_Method1.
Compound `COc1cc(NC(=O)c2ccc3cc(C(=N)N)ccc3c2)cc(OC(C)C)c1` [uPa_28] had a Ki of 33.3 nM.

As to `N=C(N)NC(=O)c1nc(Cl)c(NCc2cc(Cl)cc(Cl)c2)nc1N` [uPa_22], the affinity, expressed as Ki, was 3570 nM.

`CC(C)CN(CC(C)C)C(=O)c1ccc2ccc(N)nc2c1` [uPa_34] returned a Ki greater than 100000 nM.

`C=CCNC(=O)Nc1cccc2ccc(N)nc12` [uPa_30] registered a Ki greater than 10000 nM.

Consider `N=C(N)c1ccc2cc(C(=O)Nc3ccc4c(c3)C(C3CCCCC3)=NCC4)ccc2c1` [uPa_31], for which the Ki was 66.3 nM.

Compound `CS(=O)(=O)n1cc(-c2cc(C(=O)Nc3ccccc3)cc3ccc(C(=N)N)cc23)cn1` [uPa_20] displayed a Ki of 769 nM.

`Nc1ccc2nc(N)ccc2c1` [uPa_23] returned a Ki greater than 104000 nM.

The compound `CN1CCc2ccc(/C=C/c3ccc4cc(C(=N)N)ccc4c3)cc2C1C1CCCCC1` (stereo not given) [uPa_40] registered a Ki of 223 nM.

As for `COC/C=C/c1cc(C2CC2c2ccc3c(c2)C(C(C)C)N(C)CC3)cc2ccc(C(=N)N)cc12` (stereo not given) [uPa_39], the Ki worked out at 21 nM.

`N=C(N)c1ccc2cc(/C=C/CCc3cccnc3)cc(Br)c2c1` [uPa_32] displayed a Ki of 3080 nM.

The compound `N=C(N)c1ccc2cc(C(=O)Nc3ccc4c(c3)C(c3ccccc3)=NCC4)ccc2c1` [uPa_29] gave a Ki of 290 nM.

In the case of `CS(=O)(=O)Nc1cc(CCc2ccccc2)cc2ccc(C(=N)N)cc12` [uPa_37], the affinity corresponds to a Ki of 1490 nM.

`N#CC(CCOc1cccc2ccc(N)nc12)(c1ccccc1)c1ccccc1` [uPa_16]: the Ki was greater than 40000 nM.

Compound `COc1cc2ccc(C(=N)N)cc2c(OC)c1OC` [uPa_2] gave a Ki of 8030 nM.

`N=C(N)c1ccc2cc(NS(=O)(=O)c3ccccc3)ccc2c1` [uPa_14] returned a Ki of 8700 nM.

In turn, `N=C(N)NC(=O)c1ccc(Cl)c(S(N)(=O)=O)c1` [uPa_45] came in with a Ki greater than 100000 nM.

For `COC(=O)Nc1cc(C(=O)Nc2ccccc2)cc2ccc(C(=N)N)cc12` [uPa_36], the Ki came to 18 nM.

`CC(C)C1=NCCc2ccc(NC(=O)c3cc(Br)c4cc(C(=N)N)ccc4c3)cc21` [uPa_26] returned an inhibitory constant (Ki) of 15.7 nM.

Consider `CN1CCc2ccc(C3CC3c3ccc4cc(C(=N)N)ccc4c3)cc2C1C1CCC1` (stereo not given) [uPa_41], for which the Ki was 42 nM.

For `CN1CCc2ccc(C3CC3c3ccc4cc(C(=N)N)ccc4c3)cc2C1c1cccnc1` (stereo not given) [uPa_44], the Ki was 1250 nM.

The compound `N=C(N)c1ccc2cc(C(=O)Nc3ccccc3)cc(-c3ncccn3)c2c1` [uPa_21] yielded a Ki of 7850 nM.

As to `COC(=O)Nc1ccc2nc(N)ccc2c1` [uPa_24], the Ki was greater than 50000 nM.

Regarding `COc1ccc2ccc(C(=N)N)cc2c1-c1cnn(C(C)C)c1` [uPa_11], the Ki worked out at 4500 nM.

`COc1cc(C2CC2c2ccc3c(c2)C(C(C)C)N(C)CC3)cc2ccc(C(=N)N)cc12` (stereo not given) [uPa_42] showed a Ki of 94 nM.

For the compound `COC(=O)Nc1ccc2nc(C(=N)N)ccc2c1` [uPa_27], the Ki was greater than 50000 nM.

On to `N=C(N)c1ccc2ccccc2c1` [Naphthalene-2-carboxamidine], for which the affinity, expressed as Ki, was 5910 nM.

As for `CC(C)Oc1ccc2cc(C(=N)N)ccc2c1` [uPa_5], the Ki came out at 7280 nM.

Compound `C#CCN(C)C(=O)c1ccc2ccc(N)nc2c1` [uPa_33] registered a Ki greater than 100000 nM.

`Nc1cc2ccccc2cn1`: the Ki is greater than 30000 nM.

In the case of `N=C(N)c1ccc2cc(C#Cc3cccc(OC4CCCC4)c3)ccc2c1` [uPa_25], the inhibition constant Ki came out at 665 nM.

Compound `CCOc1cc(OCC)c(OCC)cc1/C=C/c1cc(Br)c2cc(C(=N)N)ccc2c1` [uPa_38] registered an inhibitory constant (Ki) of 777 nM.

For the compound `COC(=O)Nc1cc(C(=O)Nc2ccc(CN)cc2)cc2ccc(C(=N)N)cc12` [uPa_17], the Ki is 0.892 nM.

In turn, `CN(CC#N)C(=O)c1ccc2ccc(N)nc2c1` [uPa_35] yielded a Ki greater than 100000 nM.

As for `CC(C)C1c2cc(C3CC3c3cc(/C=C/C4CC4)c4cc(C(=N)N)ccc4c3)ccc2CCN1C` (stereo not given) [uPa_43], affinity was put at a Ki of 9 nM.

`Nc1cnc2ccccc2n1` [uPa_1] gave a Ki greater than 50000 nM.

A word on the Ki: it is a measure of affinity in units of concentration, obtained from inhibition or displacement. A low value points to a stronger hold on the target.
